Eight compounds from PubChem BioAssay (NCI) can be followed below.

Test systems include HCT-116 colon; HL-60(TB) leukemia; M14 melanoma; MCF7 breast; MDA-N; NCI-H226 lung; NCI-H460 lung; RPMI-8226 leukemia; SF-539 CNS; SK-MEL-5 melanoma; SNB-19 CNS; LOX IMVI melanoma; SK-MEL-28 melanoma; SK-OV-3 ovarian.
Test in all cases: NCI anticancer screen, dose series, 48 h

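Results reflect a 48-hour exposure of cells in 96-well plates to compound at five concentrations. TGI: total growth inhibition.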

With `CCOC(=O)c1c(NC(=S)Nc2ccc(C)cc2)sc2c1CCN(C)C2`, the TGI in the assay with HCT-116 colon, in the assay with HL-60(TB) leukemia, in the assay on M14 melanoma, in the assay on MCF7 breast, in the assay on MDA-N and in the assay with NCI-H226 lung was more than 100 µM in each case. The TGI in the assay on NCI-H460 lung, with RPMI-8226 leukemia, in the assay on SF-539 CNS, with SK-MEL-5 melanoma and in the assay with SNB-19 CNS was more than 100 µM in each case.
As for `COC(=O)C(CCCCNC(=O)CNC(=O)OCc1ccccc1)NC(=O)C(CCCCNC(=O)CNC(=O)OCc1ccccc1)NC(=O)OCc1ccccc1` (stereo unspecified), the TGI in the assay with HCT-116 colon was more than 100 µM; with HL-60(TB) leukemia it was more than 100 µM; with LOX IMVI melanoma, more than 100 µM; with M14 melanoma, more than 100 µM; in the assay with MCF7 breast, 19.1 µM; with MDA-N, more than 100 µM. The TGI was more than 100 µM with NCI-H226 lung; more than 100 µM with NCI-H460 lung; 53.5 µM in the assay on RPMI-8226 leukemia; more than 100 µM with SK-MEL-28 melanoma; more than 100 µM with SK-MEL-5 melanoma; more than 100 µM in the assay on SNB-19 CNS.
Regarding `Cc1cn(C2CC(OC(c3ccccc3)(c3ccccc3)c3ccccc3)C(COC(c3ccccc3)(c3ccccc3)c3ccccc3)O2)c(=O)[nH]c1=O` (stereo unspecified), the TGI with HCT-116 colon, with HL-60(TB) leukemia, in the assay with LOX IMVI melanoma, in the assay on M14 melanoma, with MCF7 breast and in the assay on MDA-N was more than 100 µM each time. The TGI in the assay on NCI-H226 lung is 88.7 µM; with NCI-H460 lung, more than 100 µM; in the assay on SF-539 CNS it was more than 100 µM; with SK-MEL-28 melanoma it was more than 100 µM; in the assay on SK-MEL-5 melanoma, more than 100 µM; with SK-OV-3 ovarian, more than 100 µM. Also, the TGI in the assay on SNB-19 CNS is more than 100 µM.
Consider `CC(C)(C)c1ccc2c(c1)OCc1n[nH]c(n1)COc1cc(C(C)(C)C)ccc1OCCOCCO2`, for which the TGI is 15.5 µM in the assay on HCT-116 colon; more than 100 µM in the assay with HL-60(TB) leukemia; 13.5 µM with M14 melanoma; 12.8 µM in the assay with MCF7 breast; 12.3 µM with MDA-N; 8.97 µM with NCI-H226 lung. Moreover, the TGI was determined as 12.7 µM in the assay with NCI-H460 lung; 8.41 µM in the assay on RPMI-8226 leukemia; 21.5 µM in the assay with SF-539 CNS; 9.52 µM in the assay on SK-MEL-28 melanoma; 4.68 µM with SK-MEL-5 melanoma; 15.3 µM with SK-OV-3 ovarian. Besides, the TGI in the assay with SNB-19 CNS came out at 13.4 µM.
Consider `O=c1cc(-c2ccccc2F)[nH]c2cc3c(cc12)OCO3`, for which the TGI with HCT-116 colon was more than 58.5 µM; with HL-60(TB) leukemia, 1.09 µM; in the assay with LOX IMVI melanoma, more than 78.8 µM; with M14 melanoma it was 5.1 µM; in the assay with MCF7 breast it was more than 50.9 µM; in the assay with MDA-N, 0.0396 µM. The TGI in the assay with NCI-H226 lung was 1.81 µM; with NCI-H460 lung, more than 32.3 µM; in the assay on SF-539 CNS it was 0.357 µM; with SK-MEL-28 melanoma, more than 100 µM; with SK-MEL-5 melanoma, 4.41 µM; in the assay with SK-OV-3 ovarian, 14.2 µM. In the assay with SNB-19 CNS, this compound returned a TGI of 6.95 µM.
In the case of `COP(=O)(CC(=O)C1OC(OCc2ccccc2)C(OCc2ccccc2)C(OCc2ccccc2)C1OCc1ccccc1)OC` (stereo unspecified), the TGI in the assay with HCT-116 colon was more than 100 µM; in the assay on HL-60(TB) leukemia, 23.7 µM; in the assay on LOX IMVI melanoma it was 32.3 µM; with M14 melanoma, 70 µM; with MCF7 breast, 37.4 µM; in the assay with MDA-N it was 20.3 µM. Besides, the TGI in the assay with NCI-H226 lung was 54 µM; in the assay with NCI-H460 lung, 38.4 µM; in the assay with SF-539 CNS, 40.7 µM; in the assay with SK-MEL-28 melanoma, more than 100 µM; with SK-MEL-5 melanoma, 16.8 µM; with SK-OV-3 ovarian, more than 100 µM. Besides, in the assay on SNB-19 CNS, the TGI is more than 100 µM.
On to `Cc1ccc(C(=O)c2[nH]c(Nc3cc(C)ccn3)c(C(=S)Nc3ccccc3)c2N)cc1`, for which the TGI in the assay on HCT-116 colon, in the assay with HL-60(TB) leukemia, with LOX IMVI melanoma, in the assay with M14 melanoma, with MCF7 breast and in the assay with MDA-N was more than 100 µM throughout. For the same compound, the TGI in the assay with NCI-H226 lung, in the assay on NCI-H460 lung, in the assay on SF-539 CNS, with SK-MEL-28 melanoma, with SK-MEL-5 melanoma and with SK-OV-3 ovarian was more than 100 µM each time. This compound also gave a TGI in the assay on SNB-19 CNS of more than 100 µM.
For the compound `NC(=S)N=Nc1c(O)cc(Nc2ccc(Cl)cc2Cl)c2ccccc12`, the TGI in the assay with HCT-116 colon, with HL-60(TB) leukemia, with LOX IMVI melanoma, in the assay on M14 melanoma, in the assay with MCF7 breast and in the assay with MDA-N was more than 100 µM throughout. In addition, the TGI is more than 100 µM in the assay on NCI-H226 lung; more than 100 µM in the assay on NCI-H460 lung; 53.4 µM in the assay on SF-539 CNS; more than 100 µM with SK-MEL-28 melanoma; 95.8 µM in the assay on SK-MEL-5 melanoma; 61.5 µM with SK-OV-3 ovarian. Moreover, the TGI in the assay with SNB-19 CNS turned out to be 88.6 µM.
